Like-named read-outs stand apart in the source and are kept apart here.
Key:
Type in all cases: in vivo, Sprague-Dawley male rats
restraint ulcer = test: Inhibition of restraint ulcer in rats; conditions: Rattus norvegicus
Method: 1. […] Six Sprague-Dawley male rats (100-200 g) fasted for 24 hours were used for each group.
A square flexible small-mesh wire netting was used for immobilization. After 4 hours immobilization the rats were sacrificed, their stomachs were removed, and lesions counted under a dissecting microscope.
The compounds were administered subcutaneously (s.c.) immediately before the immobilization or orally (os) one hour before.

[1] = system: chromodacryorhea induced by carbacholine; test: Anticholinergic activity in rats (antagonism against chromodacryorhea induced by carbacholine); conditions: for ED50: Rattus norvegicus, po, read-out: anticholinergic ED50 p.o. (B); for B/A (ratio of ED50's for oral anti-cholinergic and anti-ulcer activities): B = anticholinergic ED50, A = antiulcer ED50
Source text: 3. Anticholinergic activity in rats. […] J. Pharm. […] From 3 to 5 Sprague-Dawley male rats, 250 g body weight, have been employed for each group. […] The compound reference numbers are explained in the Examples below.

gastric secretion = test: Inhibition of gastric secretion in rats (pylorus ligature technique); conditions: Rattus norvegicus, sc, s.c. at the time of pylorus ligature, 4 h, read-out: Antisecretory ED50 s.c.
Method: 2. […] Gastric antisecretory activity was evaluated in rats by the pylorus ligature technique.
Six Sprague-Dawley male rats (110-130 g) were used for each group. Twenty-four hours before the test, the rats were deprived of food but their water supply was maintained.
On the day of the operation, the pylorus was ligated under light ether anaesthesia. Four hours after the ligature, the rats were sacrificed, the stomach secretion was collected and centrifuged at 3500 r.p.m. for 10 minutes, and the volume, less sediment, was determined. The amount of the free hydrochloric acid in the gastric juice was determined by titration against 0.01N sodium hydroxide, using Topfer's Indicator.
Each compound was injected subcutaneously at the time of ligature.

[2] = po, p.o. one hour before 4 h immobilization, read-out: Antiulcer ED50 p.o (A)
[3] = sc, s.c. immediately before 4 h immobilization, read-out: Antiulcer ED50 s.c.
[4] = rats, p.o., carbacholine-induced chromodacryorhea

Row | SMILES | ED50 (restraint ulcer; [2]) [mg/kg] | ED50 (restraint ulcer; [3]) [mg/kg] | ED50 [1, 4] [mg/kg] | B/A (ratio of ED50's for oral anti-cholinergic and anti-ulcer activities) ([1]; rats, p.o.) | ED50 (gastric secretion) [mg/kg] | B/A (ratio of ED50's for oral anti-cholinergic and anti-ulcer activities) ([1]; rats, p.o., listed as methiamide) | ED50 [1] [mg/kg] | B/A (ratio of ED50's for oral anti-cholinergic and anti-ulcer activities) ([1]; rats, p.o., listed as atropine)
1 | CCC1c2nc[nH]c2CCN1C(=O)NC(C)C (stereo not shown) [compound 1316, 4-Ethyl-5-(N-isopropyl-carbamoyl)-4,5,6,7-tetrahydro-imidazo-[4,5-c]-pyridine] | 6.6 | 0.75 | 70 | 10 | 50 | – | – | –
2 | CC(C)NC(=O)N1CCc2[nH]cnc2C1 [compound 1348, 5-(N-isopropyl-carbamoyl)-4,5,6,7-tetrahydro-imidazo-[4,5-c]-pyridine] | 0.55 | 0.1 | 7.8 | 14 | 18 | – | – | –
3 | CNC(=S)NCCSCc1nc[nH]c1C [Methiamide, reference compound] | 64 | 14 | 85 | 1.3 | 60 | about 2 | – | –
4 | CCC1c2c(ncn2C)CCN1C(=O)NC(C)C (stereo not shown) [compound 1404, 3-Methyl-4-ethyl-5-(N-isopropyl-carbamoyl)-4,5,6,7-tetrahydroimidazo-[4,5-c]-pyridine] | 34 | 10 | – | – | > 50 | – | – | –
5 | CCCNC(=S)N1CCc2[nH]cnc2C1 [compound 1361, 5-(N-n-propyl-thiocarbamoyl)-4,5,6,7-tetrahydro-imidazo-[4,5-c]-pyridine] | 25 | 10 | – | – | 50 | – | – | –
6 | CNC(=S)N1CCc2[nH]cnc2C1 [compound 1068, 5-(N-methyl-thiocarbamoyl)-4,5,6,7-tetrahydroimidazo-[4,5-c]-pyridine] | 2.4 | 0.6 | > 100 | > 40 | > 50 | – | – | –
7 | CNC(=O)N1CCc2[nH]cnc2C1 [compound 1350, 5-(N-methyl-carbamoyl)-4,5,6,7-tetrahydro-imidazo-[4,5-c]-pyridine] | 5.6 | 6.5 | > 100 | > 18 | > 50 | – | – | –
8 | CCNC(=S)N1CCc2[nH]cnc2C1 [compound 1293, 5-(N-ethyl-thiocarbamoyl)-4,5,6,7-tetrahydro-imidazo-[4,5-c]-pyridine] | 25 | 6 | – | – | 8 | – | – | –
9 | CN1[C@@H]2CC[C@H]1C[C@@H](OC(=O)C(CO)c1ccccc1)C2 (stereo partly shown) [Atropine, reference compound] | 0.4 | 0.02 | – | 2 | 0.1 | – | 0.8 | about 2
10 | CCC1c2c(ncn2CC)CCN1C(=O)NC(C)C (stereo not shown) [compound 1400, 3,4-Diethyl-5-(N-isopropyl-carbamoyl)-4,5,6,7-tetrahydro-imidazo-[4,5-c]-pyridine] | 18 | 10 | > 100 | > 5.5 | 50 | – | – | –
11 | S=C(NC1CCCC1)N1CCc2[nH]cnc2C1 [compound 1360, 5-(N-cyclopentyl-thiocarbamoyl)-b 4,5,6,7-tetrahydro-imidazo-[4,5-c]-pyridine] | 5.6 | > 10 | 76 | 13 | 19 | – | – | –
12 | CCC1c2nc[nH]c2CCN1C(=N)NC(=O)c1ccccc1 (stereo not shown) [compound 1448, 4-Ethyl-5-(N-benzoylguanyl)-4,5,6,7-tetrahydroimidazo-[4,5-c]-pyridine] | 22 | > 10 | > 100 | > 4 | > 50 | – | – | –
13 | S=C(Nc1ccccc1)N1CCc2[nH]cnc2C1 [compound 1116, 5-(N-Phenyl-thiocarbamoyl)-4,5,6,7-tetrahydro-imidazo-[4,5-c]-pyridine] | > 34 | > 10 | – | – | 23 | – | – | –
14 | S=C(NC1CC1)N1CCc2[nH]cnc2C1 [compound 1359, 5-(N-cyclopropyl-thiocarbamoyl)-4,5,6,7-tetrahydro-imidazo-[4,5-c]-pyridine] | 1.8 | 5 | 45.5 | 25 | 40 | – | – | –
15 | CC(C)NC(=S)N1CCc2[nH]cnc2C1C1CCCCC1 (stereo not shown) [compound 1367, 4-Cyclohexyl-5-(N-isopropyl-thiocarbamoyl)-4,5,6,7-tetrahydro-imidazo-[4,5-c]-pyridine] | 6 | 3.3 | > 100 | > 18 | > 50 | – | – | –
16 | CC(C)NC(=S)N1CCc2ncn(C)c2C1 [compound 1286] | 8.5 | 0.85 | > 50 | > 5.8 | 34 | – | – | –
17 | N=C(NC(=O)c1ccccc1)N1CCc2[nH]cnc2C1 [compound 1450, 5-(N-benzoylguanyl)-4,5,6,7-tetrahydroimidazo-[4,5-c]-pyridine] | 34 | > 10 | – | – | > 50 | – | – | –
18 | CC(C)NC(=O)N1CCc2[nH]cnc2C1c1ccncc1 (stereo not shown) [compound 1467, 4-(4-pyridyl)-5-(N-isopropyl-carbamoyl)-4,5,6,7-tetrahydroimidazo-[4,5-c]-pyridine] | 50 | 7 | – | – | > 50 | – | – | –
19 | CC(C)NC(=S)N1CCc2[nH]cnc2C1 [compound 1087, 5-(N-isopropyl-thiocarbamoyl)-4,5,6,7-tetrahydro-imidazo-[4,5-c]-pyridine] | 3.1 | 0.9 | 2 | 0.6 | 6 | – | – | –
20 | CCC1c2nc[nH]c2CCN1C(=S)NC(C)C (stereo not shown) [compound 1184, 4-Ethyl-5-(N-isopropyl-thiocarbamoyl)-4,5,6,7-tetrahydro-imidazo-[4,5-c]-pyridine] | 11 | 0.64 | 10 | – | 22 | – | – | –
21 | O=C(NC1CCCC1)N1CCc2[nH]cnc2C1 [compound 1366, 5-(N-cyclopentyl-carbamoyl)-4,5,6,7-tetrahydro-imidazo-[4,5-c]-pyridine] | 3.8 | 0.75 | 10 | 2.6 | 17 | – | – | –
22 | O=C(NC1CC1)N1CCc2[nH]cnc2C1 [compound 1365, 5-(N-cyclopropyl-carbamoyl)-4,5,6,7-tetrahydro-imidazo-[4,5-c]-pyridine] | 3.8 | 2 | 21 | 5.5 | 50 | – | – | –
23 | CCC1c2c(ncn2CC)CCN1C(=S)NC(C)C (stereo not shown) [compound 1399, 3,4-Diethyl-5-(N-isopropyl-thiocarbamoyl)-4,5,6,7-tetrahydroimidazo-[4,5-c]-pyridine] | 4 | 3.5 | > 100 | > 25 | – | – | – | –
